The results in this text go back to patent US9220760B2, “Method of modulating the proliferation of medullary thyroid carcinoma cells” (The Administrators of the Tulane Educational Fund, priority 2001, dated 2015).

Data set [1] concerns human MTC cell line TT. The data set can be described thus: TT cell viability by Trypan Blue staining. In kind it is cell-based. How it is done:
(§1) After incubation, the cells were washed three times with ice-cold PBS and twice with 10% ice-cold trichloroacetic acid (TCA). TCA-precipitated material was solubilized in 500 μL 0.2 mol/L sodium hydroxide and 0.1% SDS. Cell-associated radioactivity was then counted in a scintillation spectrometer. Results (counts per min per well) were obtained by determining the mean value of at least six experiments in quadruplicate. The viability of TT cells in control and treated cultures was evaluated by Trypan blue staining both after 24 and 48 hours, and the number of viable cells was always 85-95%.

The target in the next data set is human SSTR1 (Homo sapiens, UniProt P30872). The data set can be described thus: Radioligand membrane receptor binding assay, SSTR1. The settings on record: CHO-K1 membranes, [125I-Tyr11]SS-14; read-out: Human somatostatin receptor subtype specificity, Ki, receptor subtype 1.
Data set [2] concerns human MTC cell line TT. The data set can be described thus: [3H]thymidine incorporation (DNA synthesis) in TT cells. The settings on record: for Change of [3H]thy incorporation: p<0.05. In kind it is cell-based. How it is done: Cells were incubated in 24-well plates for 48 hours in a culture medium supplemented with SS analogues at various concentrations (10^−9, 10^−8, 10^−7, and 10^−6 M). Control wells were treated with vehicle solution and [^3H]thy incorporation was measured as radioactivity in TCA-precipitated material. Data from six individual experiments evaluated independently in quadruplicate are expressed as the mean±SEM percent [^3H]thy incorporation inhibition versus untreated control cells *P<0.05 and **P<0.01 vs. control.
Control wells were treated with vehicle solution. [^3H]thy incorporation was measured as radioactivity in TCA-precipitated material. Data from six individual experiments were evaluated independently with four replicates expressed as the mean±SEM percent [^3H]thy incorporation inhibition versus untreated control cells *P<0.05 and **P<0.01 vs. control.
The effects of SSTR selective agonists and antagonists on TT cell DNA synthesis were assessed by determining the rate of [^3H]thymidine ([^3H]thy) incorporation, as previously described (Davis L, et al., 1994 In: Basic methods in Molecular Biology, 2nd edition, Appleton & Lange, Norwalk, Conn., USA: 611-646, degli Uberti E C, et al., 1991 J Clin Endocrinol Metab 72: 1364-1371). TT cells were plated in 24-multiwell plates (10^5 cells/well) and incubated for 48 hours in a medium supplemented with 10% FBS in the presence of [^3H]thy (1.5 μCi/mL; 87 Ci/mmol) with or without each SS analogue at concentrations ranging from 10^−6 to 10^−9 M. Treatments were renewed by adding fresh analogues to the wells after the first 24 h of incubation, without removing the medium.
as §1

The next data set addresses T1, human SSTR2 (Homo sapiens, UniProt P30874).
T1 construct: expressed in transfected cells
The data set can be described thus: SSTR2 mediated intracellular calcium mobilization in CHO-K1 cells. The class given is cell-based. The conditions noted are these: 10^-7-10^-6 M, FIG. 1. For orientation: Calcium flux is commonly read through the fluorescence of an indicator in the cells.

The test system of data set [3] is human MTC cell line TT. The data set can be described thus: TT cell proliferation ([…] 96 MTS assay, viable cell number). In kind it is cell-based. How it is done: Cells were incubated in 96-well plates for 48 hours in a culture medium supplemented with SS analogues at various concentrations (10^−9, 10^−8, 10^−7, and 10^−6 M). Control wells were treated with vehicle solution. TT cell proliferation was measured as absorbance at […] of each well. Data from six individual experiments were evaluated independently with eight replicates expressed as the mean±SEM percent cell proliferation inhibition versus untreated control cells *P<0.05 and **P<0.01 vs. control.
Control wells were treated with vehicle solution. TT cell proliferation was measured as absorbance at […] of each well. Data from six individual experiments were evaluated independently with eight replicates expressed as the mean±SEM percent cell proliferation inhibition versus untreated control cells *P<0.05 and **P<0.01 vs. control.
Control wells were treated with vehicle solution and TT cell proliferation was measured as absorbance at […] of each well. Data from six individual experiments were evaluated independently with eight replicates expressed as the mean±SEM percent cell proliferation inhibition versus untreated control cells *P<0.05 and **P<0.01 vs. control.
The effects of SSTR selective agonists and antagonists on TT cell proliferation were assessed by the […] […] The absorbance at 490 nm was then recorded using an ELISA plate reader (EASIA Reader, Medgenix, Camarillo, Calif.). […]

Where two headings read alike, the source gives them in different places. Where a SMILES comes first, the peptide text is derived from it. [ ]: non-standard residue; d: D form. Tic = O=C(O)[C@@H]1Cc2ccccc2CN1; Abu = CC[C@H](N)C(=O)O

human SSTR1, sequence (P30872 whole entry): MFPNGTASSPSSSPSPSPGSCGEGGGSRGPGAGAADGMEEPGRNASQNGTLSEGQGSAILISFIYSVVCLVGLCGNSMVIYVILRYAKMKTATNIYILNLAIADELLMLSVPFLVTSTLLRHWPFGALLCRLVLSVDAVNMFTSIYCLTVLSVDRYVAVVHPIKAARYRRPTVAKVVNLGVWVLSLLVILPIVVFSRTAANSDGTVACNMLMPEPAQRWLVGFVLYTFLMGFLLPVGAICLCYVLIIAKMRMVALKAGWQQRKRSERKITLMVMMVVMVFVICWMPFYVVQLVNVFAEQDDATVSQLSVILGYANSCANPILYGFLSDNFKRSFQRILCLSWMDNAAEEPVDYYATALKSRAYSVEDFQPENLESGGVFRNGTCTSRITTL
T1 sequence (P30874 whole entry): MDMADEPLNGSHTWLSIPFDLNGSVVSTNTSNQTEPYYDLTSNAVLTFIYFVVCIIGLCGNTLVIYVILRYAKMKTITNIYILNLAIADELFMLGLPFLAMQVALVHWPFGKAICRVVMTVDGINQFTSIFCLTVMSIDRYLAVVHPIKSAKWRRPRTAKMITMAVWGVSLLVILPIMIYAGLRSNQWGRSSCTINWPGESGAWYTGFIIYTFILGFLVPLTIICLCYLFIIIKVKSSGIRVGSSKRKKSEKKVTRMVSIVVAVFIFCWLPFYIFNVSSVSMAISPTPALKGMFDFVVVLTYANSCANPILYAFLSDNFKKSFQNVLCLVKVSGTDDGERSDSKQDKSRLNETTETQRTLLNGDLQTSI
Procedure for human SSTR1: Specificity and selectivity of the analogues were determined by Radioligand Binding Assay on CHO-K1 cells stably transfected with each of the SSTR subtypes, as follows.
Membranes for in vitro receptor binding assays were obtained by homogenizing the CHO-K1 cells expressing the SSTR's subtypes in ice-cold 50 mM Tris-HCl and centrifuging twice at 39000 g (10 min), with an intermediate resuspension in fresh buffer. The final pellets were resuspended in 10 mM Tris-HCl for assay. […] The final assay volume was 0.3 ml. […] The incubations were terminated by rapid filtration through GF/C filters (pre-soaked in 0.3% polyethylenimine) using a Brandel filtration manifold. Each tube and filter were then washed three times with 5 ml aliquots of ice-cold buffer.
Subtype affinity was determined by radioligand membrane receptor binding assays in Chinese hamster ovary cells expressing human SSR2 gene or SSR5 cDNA
Procedure for human SSTR2: Biological activity of SSTR selective agonists and antagonists was evaluated by the calcium mobilization assay in CHO-K1 cells expressing the human SSTR2 or SSTR5. The cells were harvested by incubating in a 0.3% EDTA/phosphate buffered saline solution (25° C.), and washed twice by centrifugation. The washed cells were resuspended in Hank's—buffered saline solution (HBSS) for loading of the fluorescent Ca^2+ indicator Fura-2AM. Cell suspensions (approximately 10^6 cells/ml) were incubated with 2 mM Fura-2AM for 30 min at 25° C. Unloaded Fura-2AM was removed by centrifugation twice in HBBS, and the final suspensions were transferred to a spectrofluorometer (Hitachi F-2000) equipped with a magnetic stirring mechanism and a temperature-regulated cuvette holder. After equilibration to 37° C., the SS analogues were added for measurement of intracellular Ca^2+ mobilization.

As for `CC(C)[C@@H]1NC(=O)[C@H](CCCCN)NC(=O)[C@@H](Cc2c[nH]c3ccccc23)NC(=O)[C@H](Cc2ccc(O)cc2)NC(=O)[C@@H](NC(=O)[C@H](N)Cc2ccc3ccccc3c2)CSSC[C@@H](C(=O)N[C@H](C(N)=O)[C@@H](C)O)NC1=O` [Compound 1, D-Nal-cyclo[Cys-Tyr-D-Trp-Lys-Val-Cys]-Thr-NH2], the “Cytotoxic action by Trypan Blue staining” value in the data set with human MTC cell line TT [1] (10^-7 M) is given as “not associated with any cytotoxic action”.

Take `CC[C@@H]1NC(=O)[C@H](CCCCN)NC(=O)[C@@H](Cc2c[nH]c3ccccc23)NC(=O)[C@H](Cc2ccc(O)cc2)NC(=O)[C@@H](NC(=O)[C@@H](Cc2ccccc2)NC(=O)CN2CCN(CCO)CC2)CSSC[C@@H](C(=O)N[C@H](C(N)=O)[C@@H](C)O)NC1=O` [Compound 3, 4-(2-Hydroxyethyl)-1-piperazinylacetyl-D-Phe-cyclo(Cys-Tyr-D-Trp-Lys-Abu-Cys)-Thr-NH2]: on human SSTR1, the Ki (in general, the equilibrium dissociation constant of an inhibitor or competing ligand from its target) came out at 5.21 µM. The “Significant reduction of [3H]thy incorporation” value in the data set on human MTC cell line TT [2] (10^-8 M and 10^-7 M) is given as “not”; in the data set with human MTC cell line TT [2] (10^-9 M), “significantly (p<0.05) reduced”. Further, the “Change of [3H]thy incorporation” value in the data set on human MTC cell line TT [2] (10^-9 M, 48 h) is recorded as −17%.

Consider `CC[C@@H]1NC(=O)[C@H](CCCCN)NC(=O)[C@@H](Cc2c[nH]c3ccccc23)NC(=O)[C@H](Cc2ccc(O)cc2)NC(=O)[C@@H]2Cc3ccccc3CN2C(=O)[C@H](Cc2ccccc2)NC1=O` [Compound 2, cyclo[Tic-Tyr-D-Trp-Lys-Abu-Phe]] (cyclo([Tic]Y[dW]K[Abu]F)), for which the “Cytotoxic action by Trypan Blue staining” value in the data set on human MTC cell line TT [1] is “not associated with any cytotoxic action”. The “Intracellular Ca2+ mobilization (ratio stimulated/basal) in SSTR2 expressing cells” value at human SSTR2 is recorded as “stimulated significant intracellular Ca^2+ mobilization”.

Take `CC[C@@H]1NC(=O)[C@H](CCCCN)NC(=O)[C@@H](Cc2c[nH]c3ccccc23)NC(=O)[C@H](Cc2ccc(O)cc2)NC(=O)[C@@H](NC(=O)[C@@H](Cc2ccccc2)NS(=O)(=O)CCN2CCN(CCO)CC2)CSSC[C@@H](C(=O)N[C@H](C(N)=O)[C@@H](C)O)NC1=O` [Compound 4, 4-(2-Hydroxyethyl)-1-piperazine-2-ethanesulfonyl-D-Phe-cyclo(Cys-Tyr-D-Trp-Lys-Abu-Cys)-Thr-NH2]: the “Significant reduction of [3H]thy incorporation” value with human MTC cell line TT [2] (10^-8 M and 10^-7 M) is “not”; in the data set with human MTC cell line TT [2] (10^-9 M), “significantly (p<0.05) reduced”. For the same molecule, the “Change of [3H]thy incorporation” value in the data set with human MTC cell line TT [2] (10^-9 M, 48 h) is reported as −13%.

Take `C[C@@H](O)[C@H](NC(=O)[C@H](Cc1ccccc1)NC(=O)[C@@H](NC(=O)[C@H](CCCCN)NC(=O)[C@@H](Cc1c[nH]c2ccccc12)NC(=O)[C@H](Cc1c[nH]c2ccccc12)NC(=O)[C@H](Cc1ccccc1)NC(=O)[C@H](N)Cc1ccccc1)[C@@H](C)O)C(N)=O` [Compound 5, D-Phe-Phe-Trp-D-Trp-Lys-Thr-Phe-Thr-NH2]: the “Effect on suppression of TT cell [3H]thy incorporation produced by Compound 2” value in the data set on human MTC cell line TT [2] (10^-9 M to 10^-6 M with Compound 2 10^-7 M, FIG. 8 upper panel) is given as “dose-dependently prevented”. In the data set with human MTC cell line TT [2] (10^-9 to 10^-6 M, 48 h), the “Increase of [3H]thy incorporation” value is 80-175%. In addition, the “Increase of TT cell proliferation” value in the data set on human MTC cell line TT [3] (10^-8 M, not statistically different from control) is “up to 11%”. Also, the “Effect on suppression of TT cell proliferation produced by Compound 2” value with human MTC cell line TT [3] (10^-9 M to 10^-6 M with Compound 2 10^-7 M, FIG. 8 lower panel) is “dose-dependently prevented”.
